One compound from patent US10364247B2, “Preparation and use of novel protein kinase inhibitors” (Ruijin Hospital Affiliated to Shanghai Jiao Tong University …, priority 2015, dated 2019) can be followed below.

Test [1] addresses T1, CDC2L1 (Homo sapiens, UniProt P21127).
T1 construct: purchased KINOMEscan (screening service)
Briefly: KINOMEscan competition binding. The note with it: CDC2L1 (Entrez CDK11B), read-out: Percent Control. The protocol: (§1) KINOMEscan™ is based on a competition binding assay that quantitatively measures the ability of a compound to compete with an immobilized, active-site directed ligand (Fabian et al. (2005) Nat. Biotechnol. 23, 329; Karaman et al. (2008) Nat. Biotechnol. 26, 127). The compound was screened at 10 μM, and results for primary screen binding interactions are reported as ‘% Ctrl’, where lower numbers indicate stronger hits. The results for kinases targets with a % Ctrl less than 30 can be seen in Table 2.

Test [2] addresses DDR1 (Homo sapiens, UniProt Q08345). Briefly: KINOMEscan competition binding. Particulars: read-out: Percent Control. The protocol: as §1
Test [3] has as its target T2, EGFR(L858R) (Homo sapiens, UniProt P00533, L858R).
T2 construct: purchased KINOMEscan (panel service)
Briefly: KINOMEscan competition binding. Particulars: read-out: Percent Control. The protocol: as §1

In test [4] the target is KIT(V559D, T670I) (Homo sapiens, UniProt P10721, T670I/V559D). Briefly: KINOMEscan competition binding. Particulars: read-out: Percent Control. As to the method: as §1
In test [5] the target is MAP4K5 (Homo sapiens, UniProt Q9Y4K4). Briefly: KINOMEscan competition binding. Particulars: read-out: Percent Control. As to the method:
as §1

The target in test [6] is T3, MERTK (Homo sapiens, UniProt Q12866).
T3 construct: purchased KINOMEscan (screening service)
Briefly: KINOMEscan competition binding. Particulars: read-out: Percent Control. As to the method:
as §1

The target in test [7] is RIPK2 (Homo sapiens, UniProt O43353). Briefly: KINOMEscan competition binding. The note with it: read-out: Percent Control. As to the method: as §1
The target in test [8] is SRMS (Homo sapiens, UniProt Q9H3Y6). Briefly: KINOMEscan competition binding. Particulars: read-out: Percent Control. The protocol: as §1
Test [9] deals with SYK (Homo sapiens, UniProt P43405). Briefly: KINOMEscan competition binding. Particulars: read-out: Percent Control. The protocol: as §1
Test [10] concerns the target T4, TAOK3 (Homo sapiens, UniProt Q9H2K8).
T4 construct: purchased KINOMEscan (screening platform)
Briefly: KINOMEscan competition binding. The note with it: read-out: Percent Control. The protocol: as §1

Test [11] addresses TEC (Homo sapiens, UniProt P42680). Briefly: KINOMEscan competition binding. Particulars: read-out: Percent Control. As to the method:
as §1

The target in test [12] is T5, BaF3-BCR/ABL (Homo sapiens, UniProt P00519).
T5 construct: fused on or other part: P11274 (Breakpoint cluster region protein)
Briefly: Antiproliferative activity, kinase-dependent Ba/F3 cells (MTT/MTS). The note with it: 48 hours, cell viability, read-out: BCR/ABL IC50. Type of test: cell-based, murine. A digest of the protocol:
(§2)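 Murine Ba/F3 cells transformed with BCR/ABL (p210) or BCR/ABL-T315I, grown in RPMI/10% FCS without IL3, were seeded at 20,000 cells/well. Viability was read by MTT/MTS. IC50 is the concentration reducing viability to 50% of DMSO vehicle control.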

Test [13] addresses T6, BaF3-BCR/ABL-T315I (Homo sapiens, UniProt P00519, T315I, cells depend on it).
T6 construct: fused on or other part: P11274 (Breakpoint cluster region protein)
Described as above. The test is classed as cell-based, murine. The note with it: 48 hours, cell viability, read-out: BCR/ABL T315I IC50. A digest of the protocol:
as §2

Test [14] relates to Wt-BaF3. Briefly: Parental Ba/F3 cell proliferation (CellTiter Glo). The test is classed as cell-based, murine. Particulars: Mus musculus, parental BaF/3 cells, 48 hours. A digest of the protocol: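 Untransformed murine Ba/F3 cells, kept on 15% WEHI conditioned medium as IL3 source, were seeded at 5000 cells/well with compound. Viability was read by luminescence using CellTiter Glo diluted 1:4 in PBS, with no-cell background and vehicle controls.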
(In general: Cellular ATP, detected with luciferase, serves as a proxy for viable cell number.)

The test system of test [15] is KU812 cells. Briefly: Human leukemia cell proliferation (CellTiter Glo). The test is classed as cell-based. The note with it: compared to Imatinib and Ponatinib; FIG. 1. The protocol:
Comparison of 50% inhibition concentration (IC50) of IA-9, imatinib and Ponatinib in KU812 leukemia cells.
IA-9 is a strong kinase inhibitor among the compounds of the invention. The activity of IA-9 to inhibit human leukemia cell proliferation was tested using CellTiter Glo Assay (Promega).

The subject of test [16] is CML mice. Briefly: Mouse CML model, Kaplan-Meier survival. The test is classed as in vivo. The note with it: 10 mg/kg IA-9 by oral gavage twice a day vs vehicle and 50 mg/kg imatinib; FIG. 2. The protocol:
The number (n) of mice treated in each group was indicated.
The activity of IA-9 to treat leukemia was tested in a mouse CML model as described ^4. Bone marrow cells from 5-fluorouracil (5-FU)-treated male BALB/c donor mice 5 days before were infected at a concentration of 1×10^6 cells/mL for 24 hours in a cocktail consisting of DMEM, 15% FCS, 5% WEHI-conditioned medium, 50% viral supernatant, 3 μg/mL polybrene, 2 mmol/L L-glutamine, PSA, 7 ng/mL IL-3, 12 ng/mL IL-6 and 56 ng/mL stem cell factor (SCF; R&D System). The infection was repeated once with freshly made retrovirus-containing cocktail as described above. The infected bone marrow cells were then washed once with phosphate-buffered saline and were injected into lethally irradiated (2 doses of 450 rads each dose administered 4 hours apart) syngeneic mice (female BALB/c; 6 to 8 weeks old) through the tail vein at 4×10^5 cells per mouse. Starting at […] bone marrow transplantation, the recipient mice were treated with vehicle (10% 1-methyl-2-pyrrolidinone:90% PEG-300), 50 mg/kg imatinib or 10 mg/kg IA-9 by oral gavage twice a day.

The structures appear in SMILES notation.

MAP4K5, sequence (Q9Y4K4 whole entry): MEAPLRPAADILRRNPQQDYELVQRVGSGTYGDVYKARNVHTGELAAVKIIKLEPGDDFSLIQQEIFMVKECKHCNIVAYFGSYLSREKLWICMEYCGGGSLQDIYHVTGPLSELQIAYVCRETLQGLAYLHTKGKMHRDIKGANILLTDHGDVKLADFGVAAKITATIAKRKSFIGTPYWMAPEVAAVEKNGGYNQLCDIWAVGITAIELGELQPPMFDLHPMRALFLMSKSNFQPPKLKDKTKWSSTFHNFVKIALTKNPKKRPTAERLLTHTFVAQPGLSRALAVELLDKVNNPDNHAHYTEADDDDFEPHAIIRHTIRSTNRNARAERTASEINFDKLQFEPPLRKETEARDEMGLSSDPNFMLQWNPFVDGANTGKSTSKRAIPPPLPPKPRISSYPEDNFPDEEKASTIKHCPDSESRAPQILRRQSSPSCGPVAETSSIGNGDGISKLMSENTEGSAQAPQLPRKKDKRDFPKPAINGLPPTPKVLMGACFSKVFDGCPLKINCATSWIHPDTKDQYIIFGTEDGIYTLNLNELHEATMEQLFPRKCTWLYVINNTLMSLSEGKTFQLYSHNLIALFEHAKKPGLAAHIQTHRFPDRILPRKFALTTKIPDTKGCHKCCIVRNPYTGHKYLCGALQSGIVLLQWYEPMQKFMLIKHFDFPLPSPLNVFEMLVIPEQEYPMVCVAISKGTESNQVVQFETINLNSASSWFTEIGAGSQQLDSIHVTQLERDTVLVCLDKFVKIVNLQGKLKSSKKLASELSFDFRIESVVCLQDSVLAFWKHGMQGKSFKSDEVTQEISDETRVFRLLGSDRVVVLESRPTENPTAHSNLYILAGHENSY
T2 sequence (P00533 25-1210 L858R): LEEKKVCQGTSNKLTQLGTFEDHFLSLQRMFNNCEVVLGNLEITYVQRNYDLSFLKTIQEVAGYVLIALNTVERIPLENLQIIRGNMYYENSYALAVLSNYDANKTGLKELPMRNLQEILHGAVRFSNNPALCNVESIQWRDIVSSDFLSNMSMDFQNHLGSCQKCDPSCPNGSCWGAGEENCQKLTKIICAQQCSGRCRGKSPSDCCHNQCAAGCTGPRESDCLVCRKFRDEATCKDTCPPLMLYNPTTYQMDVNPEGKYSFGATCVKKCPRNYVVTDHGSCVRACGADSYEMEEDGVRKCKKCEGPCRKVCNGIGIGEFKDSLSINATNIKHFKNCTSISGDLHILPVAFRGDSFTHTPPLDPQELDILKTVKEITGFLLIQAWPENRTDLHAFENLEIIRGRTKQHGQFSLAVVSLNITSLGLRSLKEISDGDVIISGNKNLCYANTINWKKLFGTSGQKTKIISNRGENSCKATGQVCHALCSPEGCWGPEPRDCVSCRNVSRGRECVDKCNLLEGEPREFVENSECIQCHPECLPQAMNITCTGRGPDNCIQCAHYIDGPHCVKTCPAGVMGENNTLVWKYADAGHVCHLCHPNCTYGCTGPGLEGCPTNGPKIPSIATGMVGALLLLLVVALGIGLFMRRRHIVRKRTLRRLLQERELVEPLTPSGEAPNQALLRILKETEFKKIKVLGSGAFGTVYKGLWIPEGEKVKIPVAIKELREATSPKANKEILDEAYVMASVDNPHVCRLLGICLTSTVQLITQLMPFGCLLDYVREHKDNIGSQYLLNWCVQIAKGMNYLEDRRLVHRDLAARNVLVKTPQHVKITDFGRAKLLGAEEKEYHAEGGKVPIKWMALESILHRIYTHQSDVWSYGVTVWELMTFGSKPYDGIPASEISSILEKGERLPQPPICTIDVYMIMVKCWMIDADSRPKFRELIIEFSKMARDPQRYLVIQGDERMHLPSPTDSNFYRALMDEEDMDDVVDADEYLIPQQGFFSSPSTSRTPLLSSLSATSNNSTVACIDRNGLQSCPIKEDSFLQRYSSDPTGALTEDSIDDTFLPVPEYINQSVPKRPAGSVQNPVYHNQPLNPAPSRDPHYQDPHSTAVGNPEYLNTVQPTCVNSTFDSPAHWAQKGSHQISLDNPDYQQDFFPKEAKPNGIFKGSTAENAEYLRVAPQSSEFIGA
TEC, sequence (P42680 whole entry): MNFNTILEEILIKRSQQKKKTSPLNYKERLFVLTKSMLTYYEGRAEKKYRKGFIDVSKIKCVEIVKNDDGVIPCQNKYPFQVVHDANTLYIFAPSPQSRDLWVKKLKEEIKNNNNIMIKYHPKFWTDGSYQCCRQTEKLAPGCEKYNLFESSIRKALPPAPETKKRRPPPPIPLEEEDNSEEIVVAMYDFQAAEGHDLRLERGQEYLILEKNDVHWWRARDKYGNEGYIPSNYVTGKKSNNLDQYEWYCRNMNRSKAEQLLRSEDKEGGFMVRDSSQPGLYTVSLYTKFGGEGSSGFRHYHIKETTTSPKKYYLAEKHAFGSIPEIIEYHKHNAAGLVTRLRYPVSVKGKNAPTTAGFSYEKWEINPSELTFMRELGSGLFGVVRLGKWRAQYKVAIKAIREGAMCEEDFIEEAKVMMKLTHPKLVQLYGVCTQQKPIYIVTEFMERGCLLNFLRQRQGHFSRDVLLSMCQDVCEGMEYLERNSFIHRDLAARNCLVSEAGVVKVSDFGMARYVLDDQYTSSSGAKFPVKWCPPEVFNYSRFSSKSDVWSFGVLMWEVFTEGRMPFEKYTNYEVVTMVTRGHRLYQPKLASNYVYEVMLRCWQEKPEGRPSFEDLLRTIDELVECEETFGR
T1 sequence (P21127 whole entry): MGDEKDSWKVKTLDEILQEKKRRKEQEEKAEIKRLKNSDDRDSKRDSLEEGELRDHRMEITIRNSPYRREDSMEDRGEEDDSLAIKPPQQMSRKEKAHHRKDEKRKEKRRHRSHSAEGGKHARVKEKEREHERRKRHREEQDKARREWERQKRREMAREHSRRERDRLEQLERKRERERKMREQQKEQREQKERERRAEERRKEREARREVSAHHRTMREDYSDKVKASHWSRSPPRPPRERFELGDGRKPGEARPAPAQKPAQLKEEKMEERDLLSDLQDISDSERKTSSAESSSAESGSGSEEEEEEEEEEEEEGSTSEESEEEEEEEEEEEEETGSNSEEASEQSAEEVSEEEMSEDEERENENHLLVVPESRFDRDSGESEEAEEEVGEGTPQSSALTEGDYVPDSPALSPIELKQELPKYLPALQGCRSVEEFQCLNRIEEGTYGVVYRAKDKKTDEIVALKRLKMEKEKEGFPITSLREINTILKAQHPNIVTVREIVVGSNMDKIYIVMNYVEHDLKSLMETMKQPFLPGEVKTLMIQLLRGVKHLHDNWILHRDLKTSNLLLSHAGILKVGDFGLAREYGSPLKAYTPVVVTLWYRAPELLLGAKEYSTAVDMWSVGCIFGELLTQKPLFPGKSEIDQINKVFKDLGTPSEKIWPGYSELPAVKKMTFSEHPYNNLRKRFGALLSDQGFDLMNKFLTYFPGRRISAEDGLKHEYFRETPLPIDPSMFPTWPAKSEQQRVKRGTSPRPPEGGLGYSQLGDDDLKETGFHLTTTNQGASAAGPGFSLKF
T3 sequence (Q12866 21-999): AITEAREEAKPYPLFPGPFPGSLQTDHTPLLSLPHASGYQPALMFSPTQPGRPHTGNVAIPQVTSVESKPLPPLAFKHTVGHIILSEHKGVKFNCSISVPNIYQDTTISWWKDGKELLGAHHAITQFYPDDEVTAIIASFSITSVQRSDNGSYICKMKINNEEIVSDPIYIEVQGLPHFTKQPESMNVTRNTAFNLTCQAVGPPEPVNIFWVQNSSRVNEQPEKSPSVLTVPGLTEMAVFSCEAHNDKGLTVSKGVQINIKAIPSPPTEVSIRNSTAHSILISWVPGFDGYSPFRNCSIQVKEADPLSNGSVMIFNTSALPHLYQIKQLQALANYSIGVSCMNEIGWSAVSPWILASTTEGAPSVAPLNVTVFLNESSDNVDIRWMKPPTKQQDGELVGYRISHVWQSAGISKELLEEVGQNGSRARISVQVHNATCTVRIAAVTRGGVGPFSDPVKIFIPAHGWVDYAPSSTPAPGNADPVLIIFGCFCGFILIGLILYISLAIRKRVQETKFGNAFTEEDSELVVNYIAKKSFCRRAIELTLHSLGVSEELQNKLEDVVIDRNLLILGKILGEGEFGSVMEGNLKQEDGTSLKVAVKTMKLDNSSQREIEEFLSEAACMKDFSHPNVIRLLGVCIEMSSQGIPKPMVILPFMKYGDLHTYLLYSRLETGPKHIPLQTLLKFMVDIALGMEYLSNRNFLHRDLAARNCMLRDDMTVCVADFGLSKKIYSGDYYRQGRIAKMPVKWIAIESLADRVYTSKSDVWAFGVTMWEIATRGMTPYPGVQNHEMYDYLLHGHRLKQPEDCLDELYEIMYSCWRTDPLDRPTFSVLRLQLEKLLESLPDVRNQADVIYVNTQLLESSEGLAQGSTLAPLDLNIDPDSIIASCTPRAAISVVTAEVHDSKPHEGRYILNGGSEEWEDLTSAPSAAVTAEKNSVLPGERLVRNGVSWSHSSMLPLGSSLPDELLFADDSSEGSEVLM
RIPK2, sequence (O43353 whole entry): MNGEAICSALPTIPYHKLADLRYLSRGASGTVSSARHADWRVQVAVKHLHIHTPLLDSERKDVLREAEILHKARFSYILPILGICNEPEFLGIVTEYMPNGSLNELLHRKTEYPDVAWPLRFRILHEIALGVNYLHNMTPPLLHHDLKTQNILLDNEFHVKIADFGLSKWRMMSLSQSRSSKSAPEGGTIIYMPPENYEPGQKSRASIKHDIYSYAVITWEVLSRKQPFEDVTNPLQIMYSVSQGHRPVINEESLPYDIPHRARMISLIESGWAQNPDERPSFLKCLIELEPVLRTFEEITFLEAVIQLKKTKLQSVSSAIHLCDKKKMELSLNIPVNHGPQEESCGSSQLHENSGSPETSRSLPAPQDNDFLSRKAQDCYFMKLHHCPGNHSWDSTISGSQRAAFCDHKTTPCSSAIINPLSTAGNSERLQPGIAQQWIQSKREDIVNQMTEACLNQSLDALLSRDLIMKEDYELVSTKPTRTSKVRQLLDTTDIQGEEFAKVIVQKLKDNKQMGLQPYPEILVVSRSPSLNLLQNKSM

Consider `Cc1ccc(Nc2ncc3c(n2)N(C)CN(c2cc(NC(=O)c4cccc(C(F)(F)F)c4)ccc2C)C3)cn1` [IA-9, N-(4-methyl-3-(1-methyl-7-((6-methylpyridin-3-yl)amino)-1,4-dihydropyrimido[4,5-d]pyrimidin-3(2H)-yl)phenyl)-3-(trifluoromethyl)benzamide], for which the remaining binding at 10 µM in [1] is 15%; in [2], 1.1%; in test [3], 0.05%; in [4], 0.3%; in test [5], 2.5%; in test [6], 7%. Besides, the remaining binding at 10 µM in test [7] came out at 6%; in test [8] it was 0.95%; in [9] it was 4.4%; in test [10], 29%; in test [11], 0.55%. In addition, the figures for the GI50 in [12] and in test [13] were 5 nM and 651 nM, respectively. In addition, the IC50 in [14] turned out to be 5380 nM. In test [15], the “inhibition of proliferation of KU812 cells” value is given as “stronger ability to inhibit proliferation of KU812 cells”. Further, the “anti-leukemia activity (Kaplan-Meier survival)” value in [16] was “significantly stronger anti-leukemia activity”.

Broadly, the IC50 is the concentration that inhibits the measured activity by half.
